Experimental data reported in patent US8268818B2, “Inhibitors of C-MET and uses thereof” (Vertex Pharmaceuticals Incorporated, priority 2006, dated 2012).
pKi: −log10 of the molar value.

The compounds below were run against T1, PI3Kγ (Homo sapiens, UniProt P48736) (assay: PI3K inhibition assay, Protocol A (33P incorporation, hydrophobic membrane filter plate)). Conditions: 40 μM ATP, 65 μM PI(4,5)P2 diC8, 75 nM PI3Kγ, average if more than one result, read-out: PI3Kγ enzyme inhibition Ki.
Format: biochemical
Description: Compounds were screened for their ability to inhibit PI3Kγ using one of the assays below. To each well of a 96 well polystyrene plate [Corning, Costar Item No. 3696], was added 1.5 μl of a compound of the invention (at various concentrations) along with 28.5 W of kinase buffer [50 mM HEPES (pH 7.4), 5 mM DTT, 5 mM MgCl2 and 50 mM NaCl] containing 137 μM phosphatidylinositol(4,5) bisphosphate diC8 [PI(4,5)P2; Echelon Biosciences, Cat. No. P-4508] and 158 nM PI3Ky. After mixing, 30 μl of kinase buffer containing 80 μM ATP was added to start the reaction. Final substrate concentrations in the assay were 50 mM HEPES (pH 7.4), 5 mM DTT, 5 mM MgCl2, 50 mM NaCl, 40 μM ATP (200 μCi/μmole ATP), 65 μM PI(4,5)P2 and 75 nM PI3Kγ. After 20 minutes at room temperature (25° C.), the reaction was stopped with 30 μl of kinase buffer containing 150 mM EDTA and 1.5 M ammonium sulfate. Each well of a 96 well hydrophobic membrane filter plate [Millipore, 0.45 μm hydrophobic membrane, Cat. No. […]] was washed with 100 μL wash buffer [50 mM HEPES (pH 7.4), 5 mM DTT, 5 mM MgCl2, 50 mM NaCl, 5 mM EDTA and 0.5 M ammonium sulfate]. 60 μL of the stopped assay was transferred to each well of the filter plate and soaked for 30 minutes. […] The filter plate was allowed to stand overnight prior to determining ^33P incorporation on a Perkin-Elmer Microbeta TriluxTM liquid scintillation counter and luminescence counter. […]

T1 sequence (P48736 whole entry, species assumed): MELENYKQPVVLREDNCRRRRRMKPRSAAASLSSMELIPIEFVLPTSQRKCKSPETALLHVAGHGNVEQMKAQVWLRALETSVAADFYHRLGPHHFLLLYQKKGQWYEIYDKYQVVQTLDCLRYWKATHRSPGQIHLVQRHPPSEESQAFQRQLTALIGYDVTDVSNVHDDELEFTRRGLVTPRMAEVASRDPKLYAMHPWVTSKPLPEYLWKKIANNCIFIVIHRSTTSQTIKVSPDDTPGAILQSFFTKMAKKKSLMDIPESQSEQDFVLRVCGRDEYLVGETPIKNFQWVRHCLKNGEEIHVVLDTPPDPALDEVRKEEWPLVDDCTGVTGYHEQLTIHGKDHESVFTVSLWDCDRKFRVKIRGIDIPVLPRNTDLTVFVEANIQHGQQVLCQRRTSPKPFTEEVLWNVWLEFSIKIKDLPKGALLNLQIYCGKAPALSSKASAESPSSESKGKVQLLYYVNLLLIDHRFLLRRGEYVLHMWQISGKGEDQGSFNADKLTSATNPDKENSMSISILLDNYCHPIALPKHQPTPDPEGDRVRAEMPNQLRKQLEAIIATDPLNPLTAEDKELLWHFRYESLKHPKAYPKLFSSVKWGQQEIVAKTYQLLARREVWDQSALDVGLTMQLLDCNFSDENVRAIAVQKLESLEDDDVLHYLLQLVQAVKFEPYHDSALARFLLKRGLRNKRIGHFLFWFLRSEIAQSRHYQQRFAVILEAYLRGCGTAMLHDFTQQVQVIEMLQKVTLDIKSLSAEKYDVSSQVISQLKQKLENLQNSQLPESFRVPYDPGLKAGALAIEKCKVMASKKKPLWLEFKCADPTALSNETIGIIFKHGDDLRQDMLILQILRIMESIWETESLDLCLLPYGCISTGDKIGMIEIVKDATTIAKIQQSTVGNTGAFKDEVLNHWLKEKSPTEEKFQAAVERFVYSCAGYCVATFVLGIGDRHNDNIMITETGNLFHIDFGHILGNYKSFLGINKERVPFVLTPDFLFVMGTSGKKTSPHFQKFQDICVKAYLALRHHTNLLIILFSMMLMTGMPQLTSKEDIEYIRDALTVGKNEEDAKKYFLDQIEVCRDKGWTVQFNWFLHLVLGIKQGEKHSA

Row | Compound | pKi
1 | CCOC(=O)c1ccc(-c2sc(NC(=O)C3CC3)nc2C)o1 [Compound 1, Ethyl 5-(2-(cyclopropanecarboxamido)-4-methylthiazol-5-yl)furan-2-carboxylate] | 5.30 to 6.00

These compounds were tested against T1, PI3Kγ (assay: PI3K inhibition assay, Protocol B (33P-ATP, glass fiber filter plate)). Conditions: not given.
Format: biochemical
Description: Compounds were screened for their ability to inhibit PI3Kγ using one of the assays below.
To each well of a 96 well polystyrene plate [Corning Costar Item No. 3795], 61 μL of Reaction Mix [55 mM HEPES pH 7.5, 11 mM MgCl2, 27 mM NaCl, 5.5 mM DTT, 0.11 mg/mL BSA, 51 μM phosphatidylinositol(4,5)bisphosphate diC16 (PI(4,5)P2; Avanti Polar Lipids, Cat. No. 840046P) and 18 nM PI3Kγ] was added. Separately, ten 2.5-fold serial dilutions of compounds of the invention were prepared in 100% DMSO with the last two wells reserved for no inhibitor controls (enzyme+no compound and no enzyme control+no compound). 1 μL it of compound or DMSO alone was added by 12-channel hand pipet and incubated for 10 minutes at room temperature (25° C.). To initiate the reaction, 5 μl of ATP Mix [49 mM HEPES pH 7.5 and 1340 ^33P-ATP was added and allowed to incubate for 30 min. at 25° C. Final concentrations of the reaction were 50 mM HEPES 7.5, 10 mM MgCl2, 25 mM NaCl, 5 mM DTT, 0.1 mg/mL BSA, 46 μM PI(4,5)P2, 16.6 nM PI3Kγ, and 100 μM ATP. Final inhibitor concentrations ranged from 10 μM to 1 nM.
After incubation, 60 μL of the reaction was quenched by transferring to 504 of 20% TCA/Water in each well of a 96 well glass fiber filter plate [Millipore Cat. No. MAFBN0B50]. The plate was dried by vacuum and then washed five times in a Bio-Tek Instruments ELX-405 Auto Plate Washer with 150 μL of 5% TCA/Water. 50 μL of scintillation fluid was added to each well and the plate was read immediately on a Perkin-Elmer TopCount™ NXT liquid scintillation counter.
Inhibition data was background subtracted (no enzyme control+no inhibitor control) and fit to the competitive tight binding Ki equation described by Morrison and Stone. [J. F. Morrison and S. R. Stone, Comments Mol. Cell. Biophys. 2 (1985) 347-368].

Row | Compound | pKi
2 | CC(=O)Nc1nc(C)c(-c2ccc(C(=O)N3CCC(C#N)(c4ccccc4)CC3)o2)s1 [Compound 16] | 6.00 to 7.00

Same assay, conditions: Protocol B; 100 μM ATP, 46 μM PI(4,5)P2 diC16, 16.6 nM PI3Kγ; average if more than one result; read-out: PI3Kγ enzyme inhibition Ki

Row | Compound | pKi
3 | CC(=O)Nc1nc(C)c(-c2ccc(S(=O)(=O)NCc3ccccc3Cl)o2)s1 [Compound 55] | > 7.00
4 | CC(=O)Nc1nc(C)c(-c2ccc(S(=O)(=O)NCc3cccc(F)c3)o2)s1 [Compound 36] | > 7.00
5 | CC[C@H](NS(=O)(=O)c1ccc(-c2sc(NC(C)=O)nc2C)o1)c1ccccc1 [Compound 50] | > 7.00
6 | COC(=O)c1nc(NC(C)=O)sc1-c1ccc(S(=O)(=O)N(C)Cc2ccccc2)o1 [Compound 71] | 5.30 to 6.00
7 | CC(=O)Nc1nc(C)c(-c2ccc(S(=O)(=O)N(C)CC(F)(F)F)o2)s1 [Compound 61] | > 7.00
8 | CC(=O)Nc1nc(C)c(-c2ccc(C(=O)NCc3c(Cl)cccc3Cl)o2)s1 [Compound 18] | 6.00 to 7.00
9 | CC(=O)Nc1nc(C)c(-c2ccc(S(=O)(=O)NCCC#N)o2)s1 [Compound 26] | > 7.00
10 | CC(=O)Nc1nc(C)c(-c2ccc(S(=O)(=O)NC(C#N)c3ccccc3)o2)s1 (centres unmarked) [Compound 63] | > 7.00
11 | CC(=O)Nc1nc(C)c(-c2ccc(S(=O)(=O)NCc3cc(Cl)cc(Cl)c3)o2)s1 [Compound 44] | 6.00 to 7.00
12 | CC(=O)Nc1nc(C)c(-c2ccc(C(=O)N3CCC(O)C3)o2)s1 (centres unmarked) [Compound 14] | 6.00 to 7.00
13 | CC[C@@H](NS(=O)(=O)c1ccc(-c2sc(NC(C)=O)nc2C)o1)c1ccccc1 [Compound 66] | > 7.00
14 | CC(=O)Nc1nc(C)c(-c2ccc(S(=O)(=O)NC3CCCC3)o2)s1 [Compound 29] | > 7.00
15 | COC(=O)c1nc(NC(C)=O)sc1-c1ccc(S(=O)(=O)NCc2ccccc2)o1 [Compound 72] | 6.00 to 7.00
16 | CC(=O)Nc1nc(C)c(-c2ccc(S(=O)(=O)NC(C)(C)c3ccccc3)o2)s1 [Compound 54] | > 7.00
17 | CC(=O)Nc1nc(C)c(-c2ccc(S(=O)(=O)NCc3cccc([N+](=O)[O-])c3)o2)s1 [Compound 40] | > 7.00
18 | CC(=O)Nc1nc(C)c(-c2ccc(S(=O)(=O)Nc3ccccc3C)o2)s1 [Compound 65] | > 7.00
19 | CC(=O)Nc1nc(C)c(-c2ccc(C(=O)N3CCC(N4CCCC4)CC3)o2)s1 [Compound 15] | 5.30 to 6.00
20 | CC(=O)Nc1nc(C)c(-c2ccc(S(=O)(=O)N3CCCCC3)o2)s1 [Compound 30] | > 7.00
21 | CC(=O)Nc1nc(C)c(-c2ccc(S(=O)(=O)N3CCN(Cc4ccccc4)CC3)o2)s1 [Compound 35] | > 7.00
22 | CC(=O)Nc1nc(C)c(-c2ccc(C(=O)N3CCSCC3)o2)s1 [Compound 5] | 6.00 to 7.00

Row | Compound | pKi
23 | CC(=O)Nc1nc(C)c(-c2ccc(S(=O)(=O)NCC(F)(F)F)o2)s1 [Compound 68] | > 7.00
24 | CC(=O)Nc1nc(C)c(-c2ccc(S(=O)(=O)NCCO)o2)s1 [Compound 22] | > 7.00
25 | COCCNS(=O)(=O)c1ccc(-c2sc(NC(C)=O)nc2C)o1 [Compound 23] | > 7.00
26 | CC(=O)Nc1nc(C)c(-c2ccc(S(=O)(=O)NCc3ccccc3)o2)s1 [Compound 34] | > 7.00
27 | COc1cc(CNS(=O)(=O)c2ccc(-c3sc(NC(C)=O)nc3C)o2)cc(OC)c1 [Compound 45] | 6.00 to 7.00
28 | CC(=O)Nc1nc(C)c(-c2ccc(S(=O)(=O)NCc3cccc(Cl)c3)o2)s1 [Compound 37] | > 7.00
29 | CC(=O)Nc1nc(C)c(-c2ccc(S(=O)(=O)N[C@H](CCO)c3ccccc3)o2)s1 [Compound 52] | > 7.00
30 | CC(=O)Nc1nc(C)c(-c2ccc(C(=O)N3CCCC(c4ccc(F)cc4)C3)o2)s1 (centres unmarked) [Compound 13] | 6.00 to 7.00
31 | CC(=O)Nc1nc(C)c(-c2ccc(C(=O)NC3(CO)CCCC3)o2)s1 [Compound 12] | 6.00 to 7.00
32 | CC(=O)Nc1nc(C)c(-c2ccc(S(=O)(=O)NCc3cccc(NS(C)(=O)=O)c3)o2)s1 [Compound 47] | > 7.00
33 | CC(=O)Nc1nc(C)c(-c2ccc(S(=O)(=O)NCc3cccc(Br)c3)o2)s1 [Compound 38] | > 7.00
34 | CC(=O)Nc1nc(C)c(-c2ccc(S(=O)(=O)NCc3cccc(OC(F)(F)F)c3)o2)s1 [Compound 43] | 6.00 to 7.00
35 | CC(=O)Nc1nc(C)c(-c2ccc(S(=O)(=O)Nc3ccccc3)o2)s1 [Compound 33] | > 7.00
36 | CC(=O)Nc1nc(C)c(-c2ccc(S(=O)(=O)NCC(F)F)o2)s1 [Compound 60] | > 7.00
37 | CC(=O)Nc1nc(C)c(-c2ccc(S(N)(=O)=O)o2)s1 [Compound 19] | > 7.00
38 | CC(=O)Nc1nc(C)c(-c2ccc(S(=O)(=O)NCc3ccccc3C)o2)s1 [Compound 67] | > 7.00
39 | CC(=O)Nc1nc(C)c(-c2ccc(S(=O)(=O)NC3CC3)o2)s1 [Compound 28] | > 7.00
40 | CC(=O)Nc1nc(C)c(-c2ccc(S(=O)(=O)N[C@H]3CCc4ccccc43)o2)s1 [Compound 56] | > 7.00
41 | CC(=O)Nc1nc(C)c(-c2ccc(C(=O)N3CCCC(C)C3)o2)s1 (centres unmarked) [Compound 6] | 6.00 to 7.00
